Reference: the NIST ThermoML archive (doi:10.1016/j.fluid.2005.11.016)

Key:
[1] = Liquid
[2] = excess molar enthalpy (molar enthalpy of mixing); xn = mol fraction of the nth substance listed; details: 303.15 K, 101 kPa, Liquid, Calvet calorimetry

Cc1cccc(C)n1 [2,6-dimethylpyridine]
[1]
Details | vapor or sublimation pressure [kPa]
263.15 K | 0.065
273.15 K | 0.143
283.15 K | 0.296
293.15 K | 0.575
303.15 K | 1.061
313.15 K | 1.868
323.15 K | 3.154
333.15 K | 5.129
343.15 K | 8.066
353.15 K | 12.31

Cc1cccc(C)n1 [2,6-dimethylpyridine] + Cc1ccccc1
[2]
Details | excess molar enthalpy [kcal/mol]
x1 = 0.0145 | 0.0148
x1 = 0.2129 | 0.0198
x1 = 0.2993 | 0.0203
x1 = 0.3406 | 0.021
x1 = 0.434 | 0.0206
x1 = 0.4479 | 0.0208
x1 = 0.5547 | 0.0191
x1 = 0.5885 | 0.0182
x1 = 0.6718 | 0.0167
x1 = 0.7056 | 0.0163
x1 = 0.7248 | 0.0153
x1 = 0.7746 | 0.012
x1 = 0.8563 | 0.00837

Cc1cncc(C)c1 [3,5-dimethylpyridine]
[1]
Details | vapor or sublimation pressure [kPa]
263.15 K | 0.016
273.15 K | 0.038
283.15 K | 0.083
293.15 K | 0.169
303.15 K | 0.325
313.15 K | 0.596
323.15 K | 1.049
333.15 K | 1.775
343.15 K | 2.904
353.15 K | 4.603

Cc1cncc(C)c1 [3,5-dimethylpyridine] + Cc1ccccc1
[2]
Details | excess molar enthalpy [kcal/mol]
x1 = 0.1248 | 0.0131
x1 = 0.1817 | 0.0163
x1 = 0.2194 | 0.0186
x1 = 0.3217 | 0.0215
x1 = 0.4079 | 0.0253
x1 = 0.5991 | 0.0263
x1 = 0.6191 | 0.0256

Cc1ccccc1 [toluene]
[1]
Details | vapor or sublimation pressure [kPa]
263.15 K | 0.468
273.15 K | 0.908
283.15 K | 1.666
293.15 K | 2.911
303.15 K | 4.873
313.15 K | 7.852
323.15 K | 12.23
333.15 K | 18.46
343.15 K | 27.12
353.15 K | 38.87
